Several values for one entry are separate records, joined by “and”; a condition that tells them apart may be missing. Identical values can stand only once.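 Dose response: 5 concentrations. Exposure: 48 h. Format: 96-well plates. Endpoint: linear interpolation; highest concentration if not reached. GI50 marks 50% less growth. At the TGI there is no net growth.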 *1 amine or outer side, *2 acyl side, *3 side chain or, on linkers, in order; H or OH if unused. Where a SMILES comes first, the peptide text is derived from it. Bridges are numbered along the chain shown (N, C = ends). [ ]: non-standard residue; d: D form. ξ: configuration not given here. X4 = CCC(C)C(N[*:1])C(O)CC(=O)O[C@H](C(=O)C(C)C(=O)[*:2])C(C)C; NMeY = CN[C@@H](Cc1ccc(O)cc1)C(=O)O; X9 = O=C([C@@H]1CC(O)CN1[*:1])[*:2]; ξNMeL = CNC(CC(C)C)C(=O)O; ξT = CC(O)C(N)C(=O)O
What was measured:
Assay in all cases: growth of human tumour cells (NCI), 48 h
[1] = system: A498 renal
[2] = system: COLO 205 colon
[3] = system: EKVX NSCLC
[4] = system: LOX IMVI melanoma
[5] = system: MDA-MB-231 breast
[6] = system: NCI-H522 lung
[7] = system: OVCAR-4 ovarian
[8] = system: OVCAR-8 ovarian
[9] = system: SF-268 CNS
[10] = system: T-47D breast

| Structure (SMILES) | GI50 [1] [µM] | TGI [1] | GI50 [2] [µM] | TGI [2] [µM] | GI50 [3] [µM] | TGI [3] [µM] | GI50 [4] [µM] | TGI [4] | GI50 [5] [µM] | TGI [5] [µM] | GI50 [6] [µM] | TGI [6] | GI50 [7] [µM] | TGI [7] | GI50 [8] [µM] | TGI [8] | GI50 [9] [µM] | TGI [9] | GI50 [10] [µM] | TGI [10] |
| --- | --- | --- | --- | --- | --- | --- | --- | --- | --- | --- | --- | --- | --- | --- | --- | --- | --- | --- | --- | --- |
| N#Cc1c(NC(=O)c2cccs2)[n+]([O-])c2ccccc2[n+]1[O-] | > 100 | > 100 µM | > 100 | > 100 | 93.8 | > 100 | > 100 | > 100 µM | > 100 | > 100 | > 100 | > 100 µM | > 100 | > 100 µM | 63.4 | > 100 µM | > 100 | > 100 µM | 89.3 | > 100 µM |
| O=C(CNC(=O)c1cccc2ccccc12)Nc1ccccc1Oc1cccc(O)c1 | 5.11 | > 25 µM | 14.7 | > 25 | 8.82 | > 25 | 15 | > 25 µM | 17.6 | > 25 | 1.62 | > 25 µM | > 25 | > 25 µM | 11.4 | > 25 µM | 20.9 | > 25 µM | 9.84 | > 25 µM |
| COc1ncnc2c(NC3OC(CO)C(O)C3O)ncnc12 (stereo not given) | – | 1.58 µM | – | 7.54 | – | > 49 | – | 0.619 µM | – | 1.54 | – | > 100 µM | – | 7.08 µM | – | 5.29 µM | – | > 100 µM | – | 7.22 µM |
| COC(=O)Nc1ccc2ccc3c(NC(=O)OC)ccc4ccc1c2c43 (tested in a mixture with another compound) | 8.26 | > 50 µM | 6.08 | 30.5 | 5.55 | > 50 | 6.67 | 19 µM | 7.95 | 35.7 | 11 | > 50 µM | 15.7 | > 50 µM | 14.3 | > 50 µM | 14 | > 50 µM | 9.23 | 35.6 µM |
| C[C@]12CC[C@H]3[C@@H](CC=C4C[C@@H](O)CC[C@@]43C)[C@@H]1C/C(=C\c1cccc(OCCN3CCOCC3)c1)[C@@H]2O | > 100 | > 100 µM | 7.39 | 58.3 | > 100 | > 100 | > 100 | > 100 µM | 87.6 | > 100 | > 100 | > 100 µM | > 100 | > 100 µM | > 100 | > 100 µM | 70.9 | > 100 µM | 6.46 | > 100 µM |
| CCC(C)C1NC(=O)C(NC(=O)C(CC(C)C)N(C)C(=O)[C@@H]2CC(O)CN2)C(C)OC(=O)[C@H](Cc2ccc(OC)cc2)N(C)C(=O)[C@@H]2CCCN2C(=O)[C@H](CC(C)C)NC(=O)C(C)C(=O)[C@H](C(C)C)OC(=O)CC1O (stereo not given in full) (H-[X9][ξNMeL][ξT][X4]LP[NMeY](Me); ester 3-C) | 0.283 | 0.628 µM and 2.45 µM | – | 0.0156 | – | 0.266 | – | 0.0294 µM and 0.101 µM | 0.0369 | – | – | 0.0519 µM and 0.0638 µM | – | 0.091 µM and 0.704 µM | 0.0238 | 0.759 µM and 1.06 µM | – | 0.172 µM and 0.252 µM | – | 0.0657 µM and 0.0994 µM |
| COc1nccc(-c2c(-c3ccc(F)cc3)ncn2C2CCC(O)CC2)n1 (stereo not given) | 21.5 | > 100 µM | 99.6 | > 100 | 78.2 | > 100 | > 92.9 | > 100 µM | > 100 | > 100 | > 60.1 | > 100 µM | > 65.3 | > 100 µM | 89.1 | > 100 µM | > 84.6 | > 100 µM | 54.5 | > 100 µM |
| S=C(Nc1ccccc1)c1ccccn1 | > 100 | > 100 µM | 9.34 | > 100 | 42.9 | > 100 | 28.2 | > 100 µM | 51.2 | > 100 | 14 | > 100 µM | 52.4 | > 100 µM | 75.3 | > 100 µM | 77.3 | > 100 µM | > 100 | > 100 µM |
| COc1ccc2c(c1)[nH]c(=O)c1c3cccnc3cn21 | 0.0335 | 4.53 µM | 0.0359 | 0.146 | 1.12 | > 94.5 | 0.0679 | 14 µM | 0.299 | 25.4 | 0.0222 | 0.0682 µM | 0.0735 | > 100 µM | 0.0514 | 21.2 µM | 0.0686 | 42.7 µM | 2.72 | 31.6 µM |
| CCN(CC)c1ccc(/C=N/NC(=O)c2ccc(Nc3ccnc(C(F)(F)F)c3)cc2)c(O)c1 | 0.479 | 10.6 µM | 0.281 | 1.09 | 0.167 | 1.76 | 0.14 | 0.922 µM | 0.396 | 3.97 | 0.293 | 2.07 µM | 0.152 | > 100 µM | 0.322 | > 33 µM | 0.155 | > 20.7 µM | 0.332 | 3.7 µM |
| COC(=O)C1=CN(CC2=CC(=O)C(C)=CC2=O)C=C(C(=O)OC)C1c1cccc(OC)c1OC | 20.8 | 55.2 µM | 9.81 | > 32.6 | 35.6 | > 100 | 20 | 45.2 µM | 11.8 | 28.9 | 17 | 45.2 µM | 12 | > 60.5 µM | 16.2 | 42.8 µM | 18.7 | > 68.4 µM | 46.2 | > 94.4 µM |
| CCOC(=O)c1cc2c(cc1Cl)SC(N(c1ccc(F)cc1)S(=O)(=O)c1ccc(OC)cc1)=NS2(=O)=O | 23 | 45.9 µM | 12.5 | 27.6 | 21.2 | 51.8 | 12.9 | 25.6 µM | 19.2 | 53.5 | 13.5 | 29.9 µM | 14.9 | 39.5 µM | – | – | 14.5 | 31.4 µM | 4.8 | 21.9 µM |
